Laboratory results taken from ChEMBL document CHEMBL5356990, “Overview of CFTR activators and their recent studies for dry eye disease: a review” (RSC Med Chem, 2023).
pEC50, pKi: −log10 of the molar value.

Key:
[1] = biological target: T1, Cystic fibrosis transmembrane conductance regulator (Homo sapiens, UniProt P13569); assay: Activation of wildtype CFTR in human Calu-3 cells; format: cell-based
[2] = biological target: T1, Cystic fibrosis transmembrane conductance regulator; assay: Activation of human wildtype CFTR
[3] = (§1) In vivo activation CFTR expressed in wild-type CD1 mouse assessed as hyperpolarization of ocular surface by measuring potential difference at 1 to 10 uM; format: functional; settings: dose 1-10 µM
[4] = biological target: T1, Cystic fibrosis transmembrane conductance regulator; assay: Activation of human CFTR expressed in rat FRT cells; format: cell-based
[5] = biological target: T1, Cystic fibrosis transmembrane conductance regulator; assay: Activation of wildtype CFTR (unknown origin) expressed in CHO cells; format: cell-based
[6] = biological target: T1, Cystic fibrosis transmembrane conductance regulator; assay: Binding affinity at human wildtype CFTR assessed as inhibition constant by fluorescence based analysis
[7] = biological target: T1, Cystic fibrosis transmembrane conductance regulator; assay: Activation of human wildtype CFTR expressed in rat FRT cells by patch clamp analysis; format: cell-based
[8] = system: Cystic fibrosis transmembrane conductance regulator (Homo sapiens), P13569 [G551D]; assay: Activation of CFTR G551D mutant (unknown origin); settings: filed as opener
Mus musculus = assay: as §1; format: functional; settings: dose 1-10 µM
[9] = biological target: T1, Cystic fibrosis transmembrane conductance regulator; assay: Activation of CFTR (unknown origin)

T1 sequence (P13569 whole entry): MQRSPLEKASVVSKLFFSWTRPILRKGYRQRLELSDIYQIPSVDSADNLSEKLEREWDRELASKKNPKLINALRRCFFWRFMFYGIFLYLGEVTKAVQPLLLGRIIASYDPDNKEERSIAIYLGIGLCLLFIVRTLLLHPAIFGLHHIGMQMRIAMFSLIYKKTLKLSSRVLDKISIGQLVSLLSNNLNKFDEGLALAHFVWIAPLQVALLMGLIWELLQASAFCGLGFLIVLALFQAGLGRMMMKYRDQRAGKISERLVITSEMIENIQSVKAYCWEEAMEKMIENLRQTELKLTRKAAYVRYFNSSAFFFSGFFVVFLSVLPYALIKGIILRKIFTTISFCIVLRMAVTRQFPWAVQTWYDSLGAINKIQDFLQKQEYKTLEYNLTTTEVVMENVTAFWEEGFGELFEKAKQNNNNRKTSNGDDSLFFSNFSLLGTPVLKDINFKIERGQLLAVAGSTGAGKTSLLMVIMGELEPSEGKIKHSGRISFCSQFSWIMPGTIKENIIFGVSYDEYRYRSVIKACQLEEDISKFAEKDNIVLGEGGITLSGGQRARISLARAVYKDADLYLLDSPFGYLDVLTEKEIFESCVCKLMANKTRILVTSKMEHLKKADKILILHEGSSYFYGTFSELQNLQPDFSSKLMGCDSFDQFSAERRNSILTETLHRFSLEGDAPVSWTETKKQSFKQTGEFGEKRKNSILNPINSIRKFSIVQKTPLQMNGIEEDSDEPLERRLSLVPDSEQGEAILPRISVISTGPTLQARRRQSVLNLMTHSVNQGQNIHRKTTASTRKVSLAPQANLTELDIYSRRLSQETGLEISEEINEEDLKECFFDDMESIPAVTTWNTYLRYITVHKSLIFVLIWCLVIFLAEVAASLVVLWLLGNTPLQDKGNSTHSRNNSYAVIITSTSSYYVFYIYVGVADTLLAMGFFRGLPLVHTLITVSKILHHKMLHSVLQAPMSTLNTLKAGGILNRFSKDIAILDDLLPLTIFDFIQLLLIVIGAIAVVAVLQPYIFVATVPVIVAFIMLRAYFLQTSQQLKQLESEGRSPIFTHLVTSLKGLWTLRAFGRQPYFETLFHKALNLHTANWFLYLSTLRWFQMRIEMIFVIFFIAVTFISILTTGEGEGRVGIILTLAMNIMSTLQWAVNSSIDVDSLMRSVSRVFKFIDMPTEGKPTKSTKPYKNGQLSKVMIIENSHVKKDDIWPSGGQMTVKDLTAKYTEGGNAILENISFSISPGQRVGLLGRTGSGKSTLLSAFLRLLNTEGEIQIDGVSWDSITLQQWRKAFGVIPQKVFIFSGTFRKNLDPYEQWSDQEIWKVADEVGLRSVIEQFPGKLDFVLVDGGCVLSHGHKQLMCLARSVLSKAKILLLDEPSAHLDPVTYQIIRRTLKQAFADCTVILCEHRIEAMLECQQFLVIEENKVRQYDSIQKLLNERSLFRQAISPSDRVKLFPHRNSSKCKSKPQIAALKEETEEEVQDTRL
Chain of Cystic fibrosis transmembrane conductance regulator (Homo sapiens), P13569 [G551D] (P13569 whole entry G551D): as the sequence (P13569 whole entry) above, with G551D counted along it

| Structure (SMILES) | Activity [3] [mV] | pEC50 [4] | also measured |
| --- | --- | --- | --- |
| CC(C)Cn1c(=O)n(C)c(=O)c2[nH]cnc21 [ISOBUTYLMETHYLXANTHINE] | – | – | pEC50 [1]: 4.35 |
| CNc1nc(Nc2ccccc2)nc(OCC(F)(F)C(F)F)n1 | – | – | pEC50 [2]: ~7.52 |
| O=C(c1cccs1)N1N=C(c2ccccc2)CC1c1ccccc1[N+](=O)[O-] (stereo unspecified) | -4.1 | 6.41 | – |
| CCN(CC)c1nc(Nc2ccccc2)nc(OC(C(F)(F)F)C(F)(F)F)n1 | -8.5 | – | – |
| COc1ccc(Cc2nnc(NC(=O)Cc3c(F)cccc3Cl)s2)cc1OC | -3.1 | 6.24 | – |
| CCOc1ccccc1CC(=O)Nc1nnc(Cc2ccc(OC)c(OC)c2)s1 | -3.4 | 6.42 | – |
| CCCn1cnc2c1N=CN1C2=N[C@](C)(C(=O)O)[C@@H](O)[C@@]1(C)O | – | – | pEC50 [5]: 5.68 |
| O=c1cc(-c2ccncc2)oc2c1cc(-c1ccco1)c1ccccc12 | – | – | pKi [6]: 5.77 |
| CNc1nc(Nc2ccc([N+](=O)[O-])cc2)nc(OCC(F)(F)C(F)F)n1 | -10 | – | – |
| CNc1nc(Nc2cccc([N+](=O)[O-])c2)nc(OCC(F)(F)F)n1 | -7.4 | 6.40 | – |
| COc1ccc(Cc2nnc(NC(=O)Cc3cccs3)s2)cc1OC | -2.5 | 6.16 | – |
| Nc1ccc([N+](=O)[O-])cc1-c1nc2ccccc2n(Cc2ccccc2)c1=O | -9.1 | 6.86 | pEC50 [7]: ~6.70 |
| CCCCc1c(-c2ccc(O)cc2)[nH]c2nccnc12 | – | – | Activity [8]: 1.5 nM |
| CCCn1cnc2c1N=CN1C2=N[C@](C)(C(=O)O)[C@H](O)[C@@]1(C)O | – | – | pEC50 [5]: 5.54 |
| CC(C)(C)c1cc(C(C)(C)C)c(NC(=O)c2c[nH]c3ccccc3c2=O)cc1O | – | – | Activity (Mus musculus): -1.8 mV |
| O=c1cc(-c2ccc(O)cc2)oc2cc(O)cc(O)c12 [APIGENIN] | – | – | pKi [6]: 5.32 |
| COc1ccccc1CC(=O)Nc1nnc(Cc2ccc(OC)c(OC)c2)s1 | -9.9 | 6.47 | – |
| CC(C)c1ccc(NC(=O)[C@H](c2ccccc2)N(C)C(=O)Cc2c[nH]c3ccccc23)cc1 | – | – | pEC50 [9]: 7.15 |
| CC/N=C1\S/C(=C\c2ccc3c(c2)OCO3)C(=O)N1CC | -2.5 | 5.70 | – |
| CC(C)Cn1c(=O)c2[nH]cnc2n(C)c1=O | – | – | pEC50 [1]: 4.00 |
| Cc1cc(C)cc(/N=C2/NC(=O)/C(=C/c3ccc(O)cc3)S2)c1 | -8.6 | 6.48 | – |
